Results reported in ChEMBL document CHEMBL1201861, “Genomics of Drug Sensitity in Cancer screening data, Wellcome Trust Sanger Institute”.

What was measured:
COLO-741 = assay: cells; assay type: functional, cell-based; settings: Homo sapiens
Description: SANGER: Inhibition of human COLO-741 cell growth in a cell viability assay.

COR-L23 = assay: cells; assay type: functional, cell-based; settings: Homo sapiens;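 further: cell viability assay measuring how strongly compounds suppress growth of COR-L23 cells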
Description: SANGER: Inhibition of human COR-L23 cell growth in a cell viability assay.

CaR-1 = assay: cells; assay type: functional, cell-based; settings: Homo sapiens;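 further: growth inhibition of human CaR-1 cancer cells, read out with a cell viability assay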
Description: SANGER: Inhibition of human CaR-1 cell growth in a cell viability assay.

D-247MG = assay: cells; assay type: functional, cell-based; settings: Homo sapiens
Description: SANGER: Inhibition of human D-247MG cell growth in a cell viability assay.

DMS-273 = assay: cells; assay type: functional, cell-based; settings: Homo sapiens
Description: SANGER: Inhibition of human DMS-273 cell growth in a cell viability assay.

DOK = assay: cells; assay type: functional, cell-based; settings: Homo sapiens;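 further: cell viability assay read-out, values reflect inhibition of cell growth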
Description: SANGER: Inhibition of human DOK cell growth in a cell viability assay.

EGI-1 = assay: cells; assay type: functional, cell-based; settings: Homo sapiens;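 further: cell viability readout used to gauge growth inhibition of EGI-1 cells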
Description: SANGER: Inhibition of human EGI-1 cell growth in a cell viability assay.

EW-22 = assay: cells; assay type: functional, cell-based; settings: Homo sapiens;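 further: growth inhibition of the EW-22 cell line, measured with a cell viability readout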
Description: SANGER: Inhibition of human EW-22 cell growth in a cell viability assay.

G-402 = assay: cells; assay type: functional, cell-based; settings: Homo sapiens
Description: SANGER: Inhibition of human G-402 cell growth in a cell viability assay.

HCT-116 = assay: cells; assay type: functional, cell-based; settings: Homo sapiens
Description: SANGER: Inhibition of human HCT-116 cell growth in a cell viability assay.

HLE = assay: cells; assay type: functional, cell-based; settings: Homo sapiens;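 further: growth inhibition of human HLE cells, read out by a cell viability assay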
Description: SANGER: Inhibition of human HLE cell growth in a cell viability assay.

Hs-578T = assay: cells; assay type: functional, cell-based; settings: Homo sapiens
Description: SANGER: Inhibition of human Hs-578-T cell growth in a cell viability assay.

HuO-3N1 = assay: cells; assay type: functional, cell-based; settings: Homo sapiens;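 further: cell viability readout used to measure how strongly compounds suppress proliferation of human HuO-3N1 cells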
Description: SANGER: Inhibition of human HuO-3N1 cell growth in a cell viability assay.

HuP-T4 = assay: cells; assay type: functional, cell-based; settings: Homo sapiens;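 further: cell viability assay measuring how much HuP-T4 cell growth is inhibited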
Description: SANGER: Inhibition of human HuP-T4 cell growth in a cell viability assay.

IGR-1 = assay: cells; assay type: functional, cell-based; settings: Homo sapiens;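 further: growth inhibition of human IGR-1 cells, read out with a cell viability assay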
Description: SANGER: Inhibition of human IGR-1 cell growth in a cell viability assay.

KYSE-140 = assay: cells; assay type: functional, cell-based; settings: Homo sapiens;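 further: cell viability assay measuring growth inhibition in human KYSE-140 cells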
Description: SANGER: Inhibition of human KYSE-140 cell growth in a cell viability assay.

KYSE-270 = assay: cells; assay type: functional, cell-based; settings: Homo sapiens;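 further: cell growth inhibition measured with a viability assay in the human KYSE-270 line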
Description: SANGER: Inhibition of human KYSE-270 cell growth in a cell viability assay.

KYSE-70 cell line = assay: cells; assay type: functional, cell-based; settings: Homo sapiens;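 further: cell viability assay read-out, with IC50 expressing suppression of KYSE-70 cell growth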
Description: SANGER: Inhibition of human KYSE-70 cell growth in a cell viability assay.

LCLC-97TM1 = assay: cells; assay type: functional, cell-based; settings: Homo sapiens;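 further: cell viability assay measuring growth inhibition of human LCLC-97TM1 cells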
Description: SANGER: Inhibition of human LCLC-97TM1 cell growth in a cell viability assay.

LN-405 = assay: cells; assay type: functional, cell-based; settings: Homo sapiens
Description: SANGER: Inhibition of human LN-405 cell growth in a cell viability assay.

M059J = assay: cells; assay type: functional, cell-based; settings: Homo sapiens;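 further: growth inhibition of M059J cells, read out with a cell viability assay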
Description: SANGER: Inhibition of human M059J cell growth in a cell viability assay.

MHH-ES-1 = assay: cells; assay type: functional, cell-based; settings: Homo sapiens
Description: SANGER: Inhibition of human MHH-ES-1 cell growth in a cell viability assay.

MOLT-13 = assay: cells; assay type: functional, cell-based; settings: Homo sapiens;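 further: IC50 for suppression of MOLT-13 cell growth, read out with a cell viability assay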
Description: SANGER: Inhibition of human MOLT-13 cell growth in a cell viability assay.

MeWo = assay: cells; assay type: functional, cell-based; settings: Homo sapiens;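 further: growth inhibition of MeWo cells, determined by a cell viability readout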
Description: SANGER: Inhibition of human Mewo cell growth in a cell viability assay.

NCI-H1437 = assay: cells; assay type: functional, cell-based; settings: Homo sapiens;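 further: growth inhibition of human NCI-H1437 cells, read out by a cell viability assay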
Description: SANGER: Inhibition of human NCI-H1437 cell growth in a cell viability assay.

NCI-H1623 = assay: cells; assay type: functional, cell-based; settings: Homo sapiens;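 further: cell viability assay used as the read-out for growth inhibition of NCI-H1623 cells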
Description: SANGER: Inhibition of human NCI-H1623 cell growth in a cell viability assay.

NCI-H1651 = assay: cells; assay type: functional, cell-based; settings: Homo sapiens;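 further: Read-out is a cell viability assay, with IC50 expressing inhibition of NCI-H1651 cell growth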
Description: SANGER: Inhibition of human NCI-H1651 cell growth in a cell viability assay.

NCI-H1693 = assay: cells; assay type: functional, cell-based; settings: Homo sapiens;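 further: growth inhibition of the human cell line, read out with a cell viability assay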
Description: SANGER: Inhibition of human NCI-H1693 cell growth in a cell viability assay.

NCI-H2347 = assay: cells; assay type: functional, cell-based; settings: Homo sapiens;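 further: growth inhibition of the cell line, read out with a cell viability assay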
Description: SANGER: Inhibition of human NCI-H2347 cell growth in a cell viability assay.

NCI-H2452 = assay: cells; assay type: functional, cell-based; settings: Homo sapiens;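 further: growth inhibition of NCI-H2452 cells, read out with a cell viability assay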
Description: SANGER: Inhibition of human NCI-H2452 cell growth in a cell viability assay.

NCI-H460 = assay: cells; assay type: functional, cell-based; settings: Homo sapiens;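 further: cell viability assay scoring growth inhibition of human NCI-H460 cells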
Description: SANGER: Inhibition of human NCI-H460 cell growth in a cell viability assay.

OE19 = assay: cells; assay type: functional, cell-based; settings: Homo sapiens;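 further: growth inhibition of OE19 cells, measured through a cell viability read-out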
Description: SANGER: Inhibition of human OE19 cell growth in a cell viability assay.

PA-1 = assay: cells; assay type: functional, cell-based; settings: Homo sapiens;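 further: IC50 for suppression of PA-1 cell proliferation, determined with a cell viability read-out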
Description: SANGER: Inhibition of human PA-1 cell growth in a cell viability assay.

PC-14 = assay: cells; assay type: functional, cell-based; settings: Homo sapiens;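 further: cell viability assay measuring inhibition of PC-14 cell growth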
Description: SANGER: Inhibition of human PC-14 cell growth in a cell viability assay.

RO82-W-1 = assay: cells; assay type: functional, cell-based; settings: Homo sapiens;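 further: growth inhibition of human RO82-W-1 cells, measured with a cell viability assay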
Description: SANGER: Inhibition of human RO82-W-1 cell growth in a cell viability assay.

SK-N-AS = assay: cells; assay type: functional, cell-based; settings: Homo sapiens;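 further: growth inhibition of human SK-N-AS cells, measured with a cell viability assay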
Description: SANGER: Inhibition of human SK-N-AS cell growth in a cell viability assay.

SW1088 = assay: cells; assay type: functional, cell-based; settings: Homo sapiens;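 further: growth inhibition of human SW1088 cells, read out by a cell viability assay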
Description: SANGER: Inhibition of human SW1088 cell growth in a cell viability assay.

SW1463 = assay: cells; assay type: functional, cell-based; settings: Homo sapiens;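 further: growth inhibition of SW1463 cells, determined with a cell viability assay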
Description: SANGER: Inhibition of human SW1463 cell growth in a cell viability assay.

SW1710 = assay: cells; assay type: functional, cell-based; settings: Homo sapiens;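 further: growth inhibition of SW1710 cells, determined with a cell viability assay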
Description: SANGER: Inhibition of human SW1710 cell growth in a cell viability assay.

SW948 = assay: cells; assay type: functional, cell-based; settings: Homo sapiens;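 further: growth inhibition of SW948 cells, read out with a cell viability assay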
Description: SANGER: Inhibition of human SW948 cell growth in a cell viability assay.

T84 = assay: cells; assay type: functional, cell-based; settings: Homo sapiens;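 further: growth inhibition measured with a cell viability readout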
Description: SANGER: Inhibition of human T84 cell growth in a cell viability assay.

TCC-SUP = assay: cells; assay type: functional, cell-based; settings: Homo sapiens;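 further: growth inhibition of TCC-SUP cells, read out with a cell viability assay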
Description: SANGER: Inhibition of human TCCSUP cell growth in a cell viability assay.

ABC-1 = assay: cells; assay type: functional, cell-based; settings: Homo sapiens;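 further: growth inhibition of human ABC-1 cells, read out by a cell viability assay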
Description: SANGER: Inhibition of human ABC-1 cell growth in a cell viability assay.

BEN = assay: cells; assay type: functional, cell-based; settings: Homo sapiens;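 further: growth inhibition of the BEN cell line, read out with a cell viability assay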
Description: SANGER: Inhibition of human BEN cell growth in a cell viability assay.

BXPC-3 = assay: cells; assay type: functional, cell-based; settings: Homo sapiens;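 further: growth inhibition of human BxPC-3 cells, read out by a cell viability assay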
Description: SANGER: Inhibition of human BxPC-3 cell growth in a cell viability assay.

CAKI-1 = assay: cells; assay type: functional, cell-based; settings: Homo sapiens;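 further: growth inhibition of CAKI-1 cells, measured by a cell viability assay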
Description: SANGER: Inhibition of human CAKI-1 cell growth in a cell viability assay.

CAL-39 = assay: cells; assay type: functional, cell-based; settings: Homo sapiens;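 further: cell viability assay measuring growth inhibition of CAL-39 cells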
Description: SANGER: Inhibition of human CAL-39 cell growth in a cell viability assay.

U2OS = assay: cells; assay type: functional, cell-based, U-2-OS; settings: Homo sapiens;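 further: growth inhibition of human U-2-OS cells, determined with a cell viability assay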
Description: SANGER: Inhibition of human U-2-OS cell growth in a cell viability assay.

EB-3 = assay: cells; assay type: functional, cell-based; settings: Homo sapiens;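 further: human EB-3 cells, growth inhibition read out via a cell viability assay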
Description: SANGER: Inhibition of human EB-3 cell growth in a cell viability assay.

IM-9 = assay: SANGER: Inhibition of human IM-9 cell growth in a cell viability assay.; assay type: functional, cell-based
NALM-6 = assay: cells; assay type: functional, cell-based; settings: Homo sapiens;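 further: growth inhibition of NALM-6 cells, read out with a cell viability assay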
Description: SANGER: Inhibition of human NALM-6 cell growth in a cell viability assay.

NCI-H64 = assay: cells; assay type: functional, cell-based; settings: Homo sapiens;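 further: growth inhibition of NCI-H64 cells, read out with a cell viability assay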
Description: SANGER: Inhibition of human NCI-H64 cell growth in a cell viability assay.

NCI-H716 = assay: cells; assay type: functional, cell-based; settings: Homo sapiens;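 further: growth inhibition of human NCI-H716 cells, measured by a cell viability assay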
Description: SANGER: Inhibition of human NCI-H716 cell growth in a cell viability assay.

NCI-H719 = assay: cells; assay type: functional, cell-based; settings: Homo sapiens;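 further: growth inhibition of the cultured cell line, read out with a viability assay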
Description: SANGER: Inhibition of human NCI-H719 cell growth in a cell viability assay.

RPMI-6666 = assay: cells; assay type: functional, cell-based; settings: Homo sapiens
Description: SANGER: Inhibition of human RPMI-6666 cell growth in a cell viability assay.

SCLC-21H = assay: cells; assay type: functional, cell-based; settings: Homo sapiens;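 further: growth inhibition of cultured human SCLC-21H cells, read out with a cell viability assay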
Description: SANGER: Inhibition of human SCLC-21H cell growth in a cell viability assay.

ARH-77 = assay: cells; assay type: functional, cell-based; settings: Homo sapiens;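 further: growth inhibition of ARH-77 cells, read out by a cell viability assay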
Description: SANGER: Inhibition of human ARH-77 cell growth in a cell viability assay.

BOKU = assay: cells; assay type: functional, cell-based; settings: Homo sapiens
Description: SANGER: Inhibition of human BOKU cell growth in a cell viability assay.

CESS = assay: SANGER: Inhibition of human CESS cell growth in a cell viability assay.; assay type: functional, cell-based
J82 = assay: cells; assay type: functional, cell-based; settings: Homo sapiens
Description: SANGER: Inhibition of human J82 cell growth in a cell viability assay.

SK-MEL-24 = assay: cells; assay type: functional, cell-based; settings: Homo sapiens
Description: SANGER: Inhibition of human SK-MEL-24 cell growth in a cell viability assay.

SK-MEL-28 = assay: cells; assay type: functional, cell-based; settings: Homo sapiens
Description: SANGER: Inhibition of human SK-MEL-28 cell growth in a cell viability assay.

UMUC3 = assay: cells; assay type: functional, cell-based; settings: Homo sapiens
Description: SANGER: Inhibition of human UM-UC-3 cell growth in a cell viability assay.

NCI-H358 = assay: cells; assay type: functional, cell-based; settings: Homo sapiens
Description: SANGER: Inhibition of human NCI-H358 cell growth in a cell viability assay.

CC(=O)c1c(C)c2cnc(Nc3ccc(N4CCNCC4)cn3)nc2n(C2CCCC2)c1=O [PALBOCICLIB]
IC50 (COLO-741): 1.32 µM
IC50 (COR-L23): 1.23 µM
IC50 (CaR-1): > 4 µM
IC50 (D-247MG): > 4 µM
IC50 (DMS-273): > 4 µM
IC50 (DOK): > 4 µM
IC50 (EGI-1): 2.47 µM
IC50 (EW-22): > 4 µM
IC50 (G-402): > 4 µM
IC50 (HCT-116): > 4 µM
IC50 (HLE): > 4 µM
IC50 (Hs-578T): 1.26 µM
IC50 (HuO-3N1): > 4 µM
IC50 (HuP-T4): > 4 µM
IC50 (IGR-1): > 4 µM
IC50 (KYSE-140): > 4 µM
IC50 (KYSE-270): > 4 µM
IC50 (KYSE-70 cell line): > 4 µM
IC50 (LCLC-97TM1): > 4 µM
IC50 (LN-405): > 4 µM
IC50 (M059J): > 4 µM
IC50 (MHH-ES-1): 1.18 µM
IC50 (MOLT-13): 1.01 µM
IC50 (MeWo): 0.937 µM
IC50 (NCI-H1437): > 4 µM
IC50 (NCI-H1623): > 4 µM
IC50 (NCI-H1651): > 4 µM
IC50 (NCI-H1693): > 4 µM
IC50 (NCI-H2347): > 4 µM
IC50 (NCI-H2452): > 4 µM
IC50 (NCI-H460): 3.67 µM
IC50 (OE19): > 4 µM
IC50 (PA-1): 0.51 µM
IC50 (PC-14): > 4 µM
IC50 (RO82-W-1): 2.62 µM
IC50 (SK-N-AS): 0.388 µM
IC50 (SW1088): 3.47 µM
IC50 (SW1463): > 4 µM
IC50 (SW1710): 2.07 µM
IC50 (SW948): > 4 µM
IC50 (T84): > 4 µM
IC50 (TCC-SUP): > 4 µM
IC50 (ABC-1): 1.79 µM
IC50 (BEN): > 4 µM
IC50 (BXPC-3): > 4 µM
IC50 (CAKI-1): > 4 µM
IC50 (CAL-39): 1.08 µM
IC50 (U2OS): 3.73 µM

Cc1nc(Nc2ncc(C(=O)Nc3c(C)cccc3Cl)s2)cc(N2CCN(CCO)CC2)n1 [DASATINIB]
IC50 (D-247MG): > 1.28 µM
IC50 (EB-3): > 1.28 µM
IC50 (IM-9): > 1.28 µM
IC50 (NALM-6): 0.193 µM
IC50 (NCI-H64): > 1.28 µM
IC50 (NCI-H716): > 1.28 µM
IC50 (NCI-H719): > 1.28 µM
IC50 (RPMI-6666): > 1.28 µM
IC50 (SCLC-21H): > 1.28 µM
IC50 (ARH-77): > 1.28 µM
IC50 (BOKU): 0.491 µM
IC50 (CESS): > 1.28 µM

CC[C@@]1(O)C(=O)OCc2c1cc1n(c2=O)Cc2cc3ccccc3nc2-1 [CAMPTOTHECIN]
IC50 (COR-L23): 0.00685 µM
IC50 (CaR-1): 0.00643 µM
IC50 (D-247MG): 0.0395 µM
IC50 (DMS-273): 0.00607 µM
IC50 (DOK): 0.0189 µM
IC50 (EGI-1): 0.0251 µM
IC50 (EW-22): 0.000557 µM
IC50 (G-402): 0.0245 µM
IC50 (HCT-116): 0.00505 µM
IC50 (HLE): 0.00575 µM
IC50 (HuO-3N1): 0.0127 µM
IC50 (HuP-T4): 0.000881 µM
IC50 (J82): 0.00472 µM
IC50 (KYSE-140): 0.0697 µM
IC50 (KYSE-270): 0.00522 µM
IC50 (KYSE-70 cell line): 0.0921 µM
IC50 (LCLC-97TM1): 0.00814 µM
IC50 (LN-405): > 0.1 µM
IC50 (M059J): 0.0041 µM
IC50 (MHH-ES-1): 0.000129 µM
IC50 (MOLT-13): 0.00179 µM
IC50 (MeWo): 0.047 µM
IC50 (NCI-H1437): 0.0349 µM
IC50 (NCI-H1623): 0.000748 µM
IC50 (NCI-H1651): 0.0149 µM
IC50 (NCI-H1693): 0.0267 µM
IC50 (NCI-H2452): 0.0909 µM
IC50 (NCI-H460): 0.0241 µM
IC50 (OE19): > 0.1 µM
IC50 (PA-1): 0.000981 µM
IC50 (PC-14): 0.0136 µM
IC50 (RO82-W-1): 0.0149 µM
IC50 (SK-MEL-24): 0.0385 µM
IC50 (SK-MEL-28): 0.0171 µM
IC50 (SK-N-AS): 0.00538 µM
IC50 (SW1088): 0.0278 µM
IC50 (SW1463): 0.0517 µM
IC50 (SW1710): 0.0336 µM
IC50 (T84): > 0.1 µM
IC50 (TCC-SUP): 0.039 µM
IC50 (ABC-1): 0.00347 µM
IC50 (CAKI-1): 0.00535 µM
IC50 (CAL-39): 0.0192 µM
IC50 (U2OS): 0.0135 µM
IC50 (UMUC3): 0.00309 µM

NC(=O)c1ncn([C@@H]2O[C@H](COP(=O)(O)O)[C@@H](O)[C@H]2O)c1N
IC50 (COLO-741): > 2000 µM
IC50 (COR-L23): 728 µM
IC50 (CaR-1): 1650 µM
IC50 (D-247MG): > 2000 µM
IC50 (DMS-273): > 2000 µM
IC50 (DOK): 657 µM
IC50 (EGI-1): > 2000 µM
IC50 (EW-22): > 2000 µM
IC50 (G-402): 1320 µM
IC50 (HCT-116): 424 µM
IC50 (HLE): > 2000 µM
IC50 (Hs-578T): > 2000 µM
IC50 (HuO-3N1): 89.4 µM
IC50 (HuP-T4): > 2000 µM
IC50 (IGR-1): > 2000 µM
IC50 (J82): > 2000 µM
IC50 (KYSE-140): 1730 µM
IC50 (KYSE-270): > 2000 µM
IC50 (KYSE-70 cell line): > 2000 µM
IC50 (LCLC-97TM1): 917 µM
IC50 (LN-405): > 2000 µM
IC50 (M059J): > 2000 µM
IC50 (MHH-ES-1): 1510 µM
IC50 (MeWo): > 2000 µM
IC50 (NCI-H1437): 599 µM
IC50 (NCI-H1623): > 2000 µM
IC50 (NCI-H1651): > 2000 µM
IC50 (NCI-H1693): > 2000 µM
IC50 (NCI-H2347): > 2000 µM
IC50 (NCI-H2452): > 2000 µM
IC50 (NCI-H358): > 2000 µM
IC50 (NCI-H460): 1360 µM
IC50 (OE19): > 2000 µM
IC50 (PA-1): 856 µM
IC50 (PC-14): 379 µM
IC50 (RO82-W-1): > 2000 µM
IC50 (SK-MEL-24): > 2000 µM
IC50 (SK-MEL-28): > 2000 µM
IC50 (SK-N-AS): > 2000 µM
IC50 (SW1088): > 2000 µM
IC50 (SW1463): > 2000 µM
IC50 (SW1710): > 2000 µM
IC50 (SW948): > 2000 µM
IC50 (T84): > 2000 µM
IC50 (TCC-SUP): 1030 µM
IC50 (ABC-1): > 2000 µM
IC50 (BEN): > 2000 µM
IC50 (BXPC-3): 1350 µM
IC50 (CAKI-1): > 2000 µM
IC50 (CAL-39): > 2000 µM
IC50 (U2OS): > 2000 µM
IC50 (UMUC3): 1750 µM
